Results: patent publication US7247622B2, “Pharmaceutical compositions containing oxapenem-3-carboxylic acids” (Amura Limited, priority 2000, dated 2007)

What was measured:
[1] = human serum; cited from earlier work
[2] = Plasma blood levels in mice following subcutaneous administration; type: in vivo; conditions: for bioavailability: sub-cutaneous administration, compared with salts XOB and U
Description: The plasma blood levels in mice (mean of 3 per time point) of compositions XOB, YOB, PFOB and […] were measured at time points of 5, 10, 20 and 30 minutes following subcutaneous (SC) administration at a dose of 50 mg per kg. The results are shown in Table 2 and illustrated in FIG. 1.

C. freundii C2-con = assay: MIC by agar dilution (NCCLS), de-repressed Class C β-lactamases; type: cell-based; conditions: unit assumed
Description: (§1) The assays to determine the Minimum Inhibitory Concentration (MIC) were performed by Agar dilution according to NCCLS guidelines (2000).

E. cloacae 84-CON = assay: as above; type: cell-based; conditions: unit assumed
Description: as §1

E. cloacae Hennessy = assay: as above; type: cell-based; conditions: unit assumed
Description: as §1

S marcescens S2-con = assay: as above; type: cell-based; conditions: unit assumed
Description: as §1

E. coli ATCC 25922 = assay: MIC by agar dilution (NCCLS), Class A β-lactamases; type: cell-based; conditions: CAZ alone or 2:1 ratio of ceftazidime with oxapenem, unit assumed
Description: as §1

E. coli TEM-10 = assay: MIC by agar dilution (NCCLS), Class A β-lactamases; type: cell-based; conditions: CAZ alone or 2:1 ratio of ceftazidime with oxapenem, unit assumed
Description: as §1

E. coli TEM-1 = assay: MIC by agar dilution (NCCLS), Class A β-lactamases; type: cell-based; conditions: CAZ alone or 2:1 ratio of ceftazidime with oxapenem, unit assumed
Description: as §1

E. coli TEM-3 = assay: MIC by agar dilution (NCCLS), Class A β-lactamases; type: cell-based; conditions: CAZ alone or 2:1 ratio of ceftazidime with oxapenem, unit assumed
Description: as §1

E. coli TEM-6 = assay: MIC by agar dilution (NCCLS), Class A β-lactamases; type: cell-based; conditions: CAZ alone or 2:1 ratio of ceftazidime with oxapenem, unit assumed
Description: as §1

E. coli TEM-9 = assay: MIC by agar dilution (NCCLS), Class A β-lactamases; type: cell-based; conditions: CAZ alone or 2:1 ratio of ceftazidime with oxapenem, unit assumed
Description: as §1

E. cloacae P99 = assay: MIC by agar dilution (NCCLS), de-repressed Class C β-lactamases; type: cell-based; conditions: unit assumed
Description: as §1

[3] = Chemical stability: half-life of hydrolysis in phosphate buffer by UV spectroscopy; type: physicochemical; conditions: 37° C., physiological phosphate buffer pH 7.4, 10^−4M oxapenem
Description: The half-lives of hydrolysis were determined at 37° C. in physiological phosphate buffer pH 7.4 by UV spectroscopy at 265 nm at a 10^−4M concentration of oxapenem

[4] = Stability in blood serum, determined microbiologically by agar diffusion test; type: in vitro ADME, bovine
Description: The blood serum stability was determined microbiologically using an agar diffusion test with Escherichia coli TEM 1 (penicillin resistant). The oxapenems were incubated with sterile bovine serum (OXOID) at 37° C. in 0.033% concentration.

[5] = CAZ alone or 1:1 ratio of ceftazidime with oxapenem
[6] = CAZ alone or 2:1 ratio of ceftazidime with oxapenem

Compound | in vivo biological half life [1] | bioavailability [2] | MIC (C. freundii C2-con; [5]) [mg/L] | MIC (C. freundii C2-con; [6]) [mg/L] | MIC (E. cloacae 84-CON; [5]) [mg/L] | MIC (E. cloacae 84-CON; [6]) [mg/L] | MIC (E. cloacae Hennessy; [6]) [mg/L] | MIC (S marcescens S2-con; [5]) [mg/L] | MIC (E. coli ATCC 25922) [mg/L] | MIC (E. coli TEM-1) [mg/L] | also measured
O=C(O)[C@H]1/C(=C/CO)O[C@@H]2CC(=O)N21 [Clavulanate] | 0.7-1.4 hrs | – | – | – | – | – | – | – | – | – | –
C[C@@H](O)[C@H]1C(=O)N2C(C(=O)O)=C(C(C)(C)CCCN)O[C@H]12 [(5R,6R,1′R)-3-(4-amino-1,1-dimethylbutyl)-6-(1′-hydroxyethyl)-7-oxo-4-oxa-1-azabicyclo[3.2.0]hept-2-ene-2-carboxylic Acid] | – | remarkably superior bioavailability | 0.03 | 2 | 4 | 4 | 4 | 0.03 | – | – | concentration at 5 min ([2]; mouse, plasma, SC 50 mg per kg, 5 min, mean of 3, read-out: Conc. (mg/L) 5 min): 26.4 mg/L; concentration at 10 min ([2]; mouse, plasma, SC 50 mg per kg, 10 min, mean of 3, read-out: Conc. (mg/L) 10 min): 25.4 mg/L; concentration at 20 min ([2]; mouse, plasma, SC 50 mg per kg, 20 min, mean of 3, read-out: Conc. (mg/L) 20 min): 12.9 mg/L; concentration at 30 min ([2]; mouse, plasma, SC 50 mg per kg, 30 min, mean of 3, read-out: Conc. (mg/L) 30 min): 2.89 mg/L
CC(C)(O/N=C(\C(=O)N[C@@H]1C(=O)N2C(C(=O)[O-])=C(C[n+]3ccccc3)CS[C@H]12)c1csc(N)n1)C(=O)O [CAZ, Ceftazidime] | 1.7-2.1 hrs | – | 64 | 64 | > 64 | > 64 | > 64 | 1 | 0.25 | 0.25 | MIC (E. coli TEM-10): > 64 mg/L; MIC (E. coli TEM-3): 16 mg/L; MIC (E. coli TEM-6): > 64 mg/L; MIC (E. coli TEM-9): > 64 mg/L; MIC (E. cloacae Hennessy; [5]): > 64 mg/L; MIC (E. cloacae P99; [5]): 32 mg/L; MIC (E. cloacae P99; [6]): 32 mg/L; MIC (S marcescens S2-con; [6]): 1 mg/L
C[C@H](O)[C@H]1C(=O)N2C(C(=O)O)=C(C(C)(C)CCCN)O[C@H]12 [YOB, (5R,6R,1′S)-3-(4-amino-1,1-dimethylbutyl)-6-(1-hydroxyethyl)-7-oxo-4-oxa-1-azabicyclo[3.2.0]hept-2-ene-2-carboxylic Acid] | – | remarkably superior bioavailability | – | – | – | – | – | – | 0.03 | 0.06 | Conc. (mg/L) 5 min ([2]; plasma, SC 50 mg per kg, 5 min, mean of 3): 40.12 mg/L; Conc. (mg/L) 10 min ([2]; plasma, SC 50 mg per kg, 10 min, mean of 3): 44.88 mg/L; Conc. (mg/L) 20 min ([2]; plasma, SC 50 mg per kg, 20 min, mean of 3): 13.79 mg/L; Conc. (mg/L) 30 min ([2]; plasma, SC 50 mg per kg, 30 min, mean of 3): 10.4 mg/L; Half-live of hydrolysis [3]: 7.0 h; stability in blood serum ([4]; bovine serum, 37° C., compared to XOB): far more stable than XOB in blood serum; Serum half life at 37° C. ([4]; sterile bovine serum, 0.033% concentration): 2.4 h
CO/N=C(\C(=O)N[C@@H]1C(=O)N2C(C(=O)O)=C(CSc3nc(=O)c(=O)[nH]n3C)CS[C@H]12)c1csc(N)n1 [Ceftriaxon] | 5.8-8.7 hrs | – | – | – | – | – | – | – | – | – | –
C[C@@H](O)[C@H]1C(=O)N2C(C(=O)O)=C(SCCN=CN)C[C@H]12 [Imipenem] | 0.9 hrs | – | – | – | – | – | – | – | – | – | –
